In experiment [1] the target is p45 v-abl tyrosine kinase. As to the kind of experiment: p45 v-abl Kinase Assay. Format: biochemical, Abelson murine leukemia virus. Conditions: in-vitro; (Val^5)-Angiotensin II peptide 2 mM, ATP 50 μM, pH 8.0, 30° C. As to the method: p45 v-abl Kinase Purification
The enzyme used in our tests was the p45 v-abl tyrosine kinase which represents the catalytic domain of the Abelson tyrosine kinase (isolated form the Abelson murine leukemia virus). The p45 v-abl kinase was produced and isolated as described by Wang at al. in J. Biol. Chem. 260, 64 (1985) and by Ferguson et al. in J. Biol. Chem. 260, 3652 (1985) and in Biochem. J. 257, 321 (1989).
(Val^5)-Angiotensin II phosphorylation was performed by incubation with 40 ng of purified abl-kinase and (γ^32 -p)ATP, in 50 μl of buffer containing Tris-Hcl 25 mM, pH 8.0. MgCl2 10 mM and dithiothreitol 0.1 mM (kinase buffer). The reaction mixture was incubated for the indicated time at 30° C. and the reaction stopped by adding 50 μl of 5% trichloroacetic acid. After a brief incubation on ice, tubes were centrifuged. The supernatants were spotted on phosphocellulose paper squares (Whatman P-81) and washed extensively in acetic acid. The radioactivity bound to dried phosphocellulose squares was measured in a liquid scintillation counter. IC50 values were calculated from triplicated determinations of each experimental point. Each inhibitor was tested at concentrations ranging from […] in the presence of fixed concentrations of peptide (2 mM) and ATP (50 μM.
(§1) The inhibitory activity data for a representative group of compounds according to the present invention, obtained both in the in-vitro p45 v-abl kinase assay and in the […] human chronic myeloid leukemia K562 cell growth inhibition assay described above, are set out in the following Table I.

The subject of another experiment is K562 cells. As to the kind of experiment: K562 Cell Growth Inhibition Assay. Format: cell-based. The conditions noted are these: human chronic myeloid leukemia K562 cells, 72 h, 10000/well. As to the method: K562 Cell Growth Inhibition Assay
K562 cells, a human myelogenous leukemia cell line, were seeded into a 24 wells tissue culture plate (Falcon 3047) (10000/well) in the presence of increasing concentrations of the compounds. After 72 h, cells were harvested and were counted using a cell counter (Coulter Counter-ZM). The percent of inhibition was evaluated in respect to the untreated control cells.
as §1

Results on four molecules are retold here after patent US5719135A, “Substituted 3-arylidene-7-azaoxindole compounds and process for their preparation” (Pharmacia S.p.A., priority 1994, dated 1998).

Regarding `O=C1Nc2ncccc2C1=Cc1cc(O)c2c(c1O)CCCC2` [3-[(1,4-dihydroxy-5,6,7,8-tetrahydronaphth-2-yl)methylene]-7-azaoxindole], the IC50 came out at 2140 nM in experiment [1] and 2360 nM with K562 cells.

With `Cc1[nH]c2ccccc2c1C=C1C(=O)Nc2ncccc21` [3-[(2-methyl-3-indolyl)methylene]-7-azaoxindole], the IC50 in experiment [1] is 40 nM; in the experiment with K562 cells, 2610 nM.

`COc1ccc2[nH]cc(C=C3C(=O)Nc4ncccc43)c2c1` [3-[(5-methoxy-3-indolyl)methylene]-7-azaoxindole]: the IC50 in experiment [1] was 30 nM; with K562 cells, 3210 nM.

Molecule `O=C1Nc2ncccc2C1=Cc1c[nH]c2ncccc12` [3-[(7-azaindol-3-yl)methylene]-7-azaoxindole] yielded a 50% inhibitory concentration (IC50) in the experiment with K562 cells of 3890 nM.

One may read the IC50 as the concentration at which inhibition is half-maximal.
